Experimental data from patent publication US8143275B2, “Use of triazolopyrimidine derivatives as microbicides” (LANXESS Deutschland GmbH, priority 2001, dated 2012).

How the values were obtained:
Test in all cases: Inhibitory test with giant colonies of Basidiomycetes
Format in all cases: cell-based
Details in all cases: 6 ppm active compound in agar medium, 26° C., compared to medium without active compound
Coniophora puteana (P2) = system: Coniophora puteana (P2)
Procedure: (§1) Inhibitory test with giant colonies of Basidiomycetes
(§2) Mycelium pieces were punched out of colonies of Gloeophyllum trabeum (P1), Coniophora puteana (P2), Poria placenta (P3), Lentinus tigrinus (P4), Coriolus versicolor (P5) and Sterum sanguinolentum (P6) and incubated at 26° C. on an agar medium. The inhibition of the growth of the fungal threads on the active-compound-containing medium (concentration of active compound: 6 ppm) was compared to the longitudinal growth of medium without added active compound and rated in inhibition percent.

Coriolus versicolor (P5) = system: Coriolus versicolor (P5)
Procedure: as §1, §2

[1] = system: Gloeophyllum trabeum (P1)
Procedure: as §1, §2

Lentinus tigrinus (P4) = system: Lentinus tigrinus (P4)
Procedure: as §1, §2

[2] = system: Sterum sanguinolentum (P6)
Procedure: as §1, §2

Poria placenta (P3) = system: Poria placenta (P3)
Procedure: as §1, §2

## Fc1cccc(-c2c(Cl)nc3ncnn3c2NC2CCCC2)c1 [No 1]
Coniophora puteana (P2)
  P2: inhibition of the growth of the fungal threads: 100%
Coriolus versicolor (P5)
  P5: inhibition of the growth of the fungal threads: 91%
[1]
  P1: inhibition of the growth of the fungal threads: 80%

## Clc1ccccc1-c1c(Cl)nc2ncnn2c1NC1CCCC1 [No 2]
Coniophora puteana (P2)
  P2: inhibition of the growth of the fungal threads: 100%
Coriolus versicolor (P5)
  P5: inhibition of the growth of the fungal threads: 100%
[1]
  P1: inhibition of the growth of the fungal threads: 100%
Lentinus tigrinus (P4)
  P4: inhibition of the growth of the fungal threads: 94%
[2]
  P6: inhibition of the growth of the fungal threads: 100%

## Fc1cccc(F)c1-c1c(Cl)nc2ncnn2c1NC1CCCC1 [No 3]
Coniophora puteana (P2)
  P2: inhibition of the growth of the fungal threads: 100%
Coriolus versicolor (P5)
  P5: inhibition of the growth of the fungal threads: 100%
[1]
  P1: inhibition of the growth of the fungal threads: 100%
Lentinus tigrinus (P4)
  P4: inhibition of the growth of the fungal threads: 100%
[2]
  P6: inhibition of the growth of the fungal threads: 100%

## Fc1cc(F)c(-c2c(Cl)nc3ncnn3c2NC2CCCC2)c(F)c1 [No 4]
Coriolus versicolor (P5)
  P5: inhibition of the growth of the fungal threads: 100%

## Clc1nc2ncnn2c(NC2CCCC2)c1-c1ccccc1 [No 5]
Coriolus versicolor (P5)
  P5: inhibition of the growth of the fungal threads: 100%

## CC(C)Nc1c(-c2ccc(Cl)cc2Cl)c(Cl)nc2ncnn12 [No 6]
Coniophora puteana (P2)
  P2: inhibition of the growth of the fungal threads: 100%
Coriolus versicolor (P5)
  P5: inhibition of the growth of the fungal threads: 95%
[1]
  P1: inhibition of the growth of the fungal threads: 95%
[2]
  P6: inhibition of the growth of the fungal threads: 100%

## Fc1ccccc1-c1c(Cl)nc2ncnn2c1N1CCCCCC1 [No 7]
Coniophora puteana (P2)
  P2: inhibition of the growth of the fungal threads: 100%
Coriolus versicolor (P5)
  P5: inhibition of the growth of the fungal threads: 100%
[1]
  P1: inhibition of the growth of the fungal threads: 100%
Lentinus tigrinus (P4)
  P4: inhibition of the growth of the fungal threads: 94%
[2]
  P6: inhibition of the growth of the fungal threads: 100%

## Fc1cccc(F)c1-c1c(Cl)nc2ncnn2c1N1CCCCCC1 [No 8]
Coniophora puteana (P2)
  P2: inhibition of the growth of the fungal threads: 100%
Coriolus versicolor (P5)
  P5: inhibition of the growth of the fungal threads: 100%
[1]
  P1: inhibition of the growth of the fungal threads: 100%
Lentinus tigrinus (P4)
  P4: inhibition of the growth of the fungal threads: 100%
Poria placenta (P3)
  P3: inhibition of the growth of the fungal threads: 100%
[2]
  P6: inhibition of the growth of the fungal threads: 100%

## CC1CCN(c2c(-c3c(F)cc(F)cc3F)c(Cl)nc3ncnn23)CC1 [No 9]
Coniophora puteana (P2)
  P2: inhibition of the growth of the fungal threads: 100%
Coriolus versicolor (P5)
  P5: inhibition of the growth of the fungal threads: 100%
[1]
  P1: inhibition of the growth of the fungal threads: 100%
Lentinus tigrinus (P4)
  P4: inhibition of the growth of the fungal threads: 100%
Poria placenta (P3)
  P3: inhibition of the growth of the fungal threads: 100%
[2]
  P6: inhibition of the growth of the fungal threads: 100%

## CC1CCN(c2c(-c3c(F)cccc3Cl)c(Cl)nc3ncnn23)CC1 [No 10]
Coniophora puteana (P2)
  P2: inhibition of the growth of the fungal threads: 100%
Coriolus versicolor (P5)
  P5: inhibition of the growth of the fungal threads: 100%
[1]
  P1: inhibition of the growth of the fungal threads: 100%
Lentinus tigrinus (P4)
  P4: inhibition of the growth of the fungal threads: 100%
Poria placenta (P3)
  P3: inhibition of the growth of the fungal threads: 100%
[2]
  P6: inhibition of the growth of the fungal threads: 100%

## C[C@H](Nc1c(-c2c(F)cc(F)cc2F)c(Cl)nc2ncnn12)C(F)(F)F [No 11]
Coniophora puteana (P2)
  P2: inhibition of the growth of the fungal threads: 100%
Coriolus versicolor (P5)
  P5: inhibition of the growth of the fungal threads: 100%
[1]
  P1: inhibition of the growth of the fungal threads: 100%
Lentinus tigrinus (P4)
  P4: inhibition of the growth of the fungal threads: 100%
Poria placenta (P3)
  P3: inhibition of the growth of the fungal threads: 100%
[2]
  P6: inhibition of the growth of the fungal threads: 100%
